Test results: patent US9126938B2, “Phosphatidylcholine transfer protein inhibitors” (The Brigham and Women's Hospital, Inc., priority 2009, dated 2015)

Experiments:
PC-TP = biological target: T1, PC-TP (Homo sapiens, UniProt Q9UKL6); assay: PC-TP inhibition assay (Wagle et al. method); type: biochemical; conditions: Table 1, concentration value
T1 sequence (Q9UKL6 1-214): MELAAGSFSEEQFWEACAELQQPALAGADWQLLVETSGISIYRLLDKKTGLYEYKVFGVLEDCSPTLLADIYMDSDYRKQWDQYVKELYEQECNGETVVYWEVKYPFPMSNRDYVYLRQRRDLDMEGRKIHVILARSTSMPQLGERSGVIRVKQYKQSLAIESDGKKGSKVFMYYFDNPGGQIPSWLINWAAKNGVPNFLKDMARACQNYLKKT
Experimental: (§1) The compounds in Table 1 and 2 were assayed for their ability to inhibit PC-TP and StarD10, respectively, using a known assay method (see Wagle et al., 2008. Anal. Biochem. 383:85-92, which is incorporated herein by reference in its entirety). Further, certain compounds were also tested for their ability to inhibit StarD7 (see Table 2).

StarD10 = biological target: T2, StarD10 (Homo sapiens, UniProt Q9Y365); assay: StarD10 inhibition assay; type: biochemical
T2 sequence (Q9Y365 1-291): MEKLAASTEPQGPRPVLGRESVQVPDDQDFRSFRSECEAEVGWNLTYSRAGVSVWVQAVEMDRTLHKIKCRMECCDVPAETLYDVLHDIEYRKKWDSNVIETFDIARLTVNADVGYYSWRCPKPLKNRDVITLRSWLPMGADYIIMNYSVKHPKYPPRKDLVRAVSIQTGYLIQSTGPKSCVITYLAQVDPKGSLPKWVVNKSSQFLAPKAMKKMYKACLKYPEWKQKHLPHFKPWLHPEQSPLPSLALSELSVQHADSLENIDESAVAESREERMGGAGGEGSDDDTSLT
Experimental: as §1

StarD7 = biological target: T3, StarD7 (Homo sapiens, UniProt Q9NQZ5); assay: StarD7 inhibition assay; type: biochemical
T3 sequence (Q9NQZ5 78-370): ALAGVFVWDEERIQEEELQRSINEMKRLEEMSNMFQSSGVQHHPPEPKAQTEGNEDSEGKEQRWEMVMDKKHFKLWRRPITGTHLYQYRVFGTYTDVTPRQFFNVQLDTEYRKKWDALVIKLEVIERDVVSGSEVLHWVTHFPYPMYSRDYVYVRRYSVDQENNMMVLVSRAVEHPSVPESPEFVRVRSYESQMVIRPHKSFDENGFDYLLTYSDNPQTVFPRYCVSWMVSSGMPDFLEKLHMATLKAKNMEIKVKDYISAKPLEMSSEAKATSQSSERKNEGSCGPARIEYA
Experimental: as §1

[1] = system: insulin signaling pathway in cultured primary human hepatocytes; assay: Activation of insulin signaling pathway in primary human hepatocytes (immunoblot); type: cell-based; conditions: serum starved hepatocytes, 60 minute exposure, doses of 0.05 and 0.10 μM, no insulin
Experimental: Cultured primary human hepatocytes (commercially obtained) were serum starved overnight followed by 60 minute exposure to A) Compound 4 or B) Compound 16 at the indicated concentrations. Inhibitors were dissolved in DMSO. Negative controls included Control (no additions) and DMSO alone. The positive control included DMSO plus insulin (50 nM) for 30 minutes. Cells were harvested and lysates were subjected to immunoblot analyses using antibodies, as indicated.

[2] = biological target: T4, purified recombinant PC-TP (Homo sapiens, UniProt Q9UKL6); assay: Displacement assay of PC-TP using pyrene-labeled PC; type: binding
T4 sequence (Q9UKL6 1-214): T1 sequence (Q9UKL6 1-214)
Experimental: Competition between the small molecule inhibitors and fluorescent pyrene-labeled phosphatidylcholine (PyrPC) for binding to PC-TP was measured using Pyr-PC fluorescent vesicles quenched with tetracyanoquinodimethane (TCNQ) (Lemmetyinen H. et al. 1989). Upon mixing of quenched Pyr-PC vesicles with purified recombinant PC-TP, the rise in Pyr-PC fluorescence reflects binding of fluorescently labeled phosphatidylcholine molecules to the active site of PC-TP. If the small molecule inhibitors enter the active site and prevent binding of phosphatidylcholine to PC-TP by competing the Pyr-PC, this should reduce the observed increase in Pyr-PC fluorescence.
The fluorescence of PyrPC monomer was measured at 392 nm on SpectraMax M5 plate-reader with excitation was set at 345 nm. Pyrene-labeled PC vesicles contained PyrPC, egg PC, and TCNQ in a molar ratio of 40:20:60. For PC and PyrPC competition assays, we used unlabeled PC vesicles composed of egg PC and TCNQ in a molar ratio of 55:45 or PC vesicles of varied lipid concentrations and PyrPC vesicles quenched with TCNQ (55:45). […] To determine the affinity of eggPC compared to PyrPC, we varied the concentration of egg PC in the assay as follows: 5, 11, 22, 27, 33, and 44 μM, and a fixed amount of PyrPC (44 μM). […] In the displacement assay, the increase in pyrene monomer fluorescence (ΔF) is proportional to the amount of [Pyr], pyrene-labeled PC bound to PC-TP. The maximal fluorescence increase (ΔFmax) at pyrene monomer emission peak (˜380-394 nm) is observed in the absence of inhibitor ([inh]=0) or unlabeled lipid ([PC]=0). The fluorescence reading of wells with PyrPC vesicles alone and Pyr-PC vesicles with inhibitor (highest background fluorescence) were used as control and subtracted as background.
As described in Van Paridon et al. 1987, by plotting ΔF as a function of ΔF·[inh]/[Pyr] […] Therefore, Krel (Compound 4/PC) can be calculated as Krel (Compound 4/PyrPC)/Krel (PC/PyrPC)=0.22.

[3] = biological target: T5, purified recombinant His-tag PC-TP (Homo sapiens, UniProt Q9UKL6); assay: Surface plasmon resonance binding to immobilized PC-TP; conditions: Biacore 3000, CM5 chip, 150 s injection
T5 sequence (Q9UKL6 1-214): T1 sequence (Q9UKL6 1-214)
Experimental: Compound 8 was injected into a Biacore 3000 surface plasmon resonance instrument with purified recombinant His-tag PC-TP immobilized to a carboxymethyl dextran 5 ([…]) chip for 150 s and allowed to dissociate. Each sensogram was overlaid and zeroed on the y-axis to the average baseline before injection. The start injection time for each sample was set to zero on the x-axis (see FIG. 2). The KD value was 5.0 μM.

Structure (SMILES)	IC50 (PC-TP) [µM]	IC50 (StarD10) [µM]	IC50 (StarD7) [µM]	Activation of insulin signaling [1]	Krel (Compound 4/PC) ([2]; calculated as Krel (Compound 4/PyrPC)/Krel (PC/PyrPC))	Effect on pyrene monomer fluorescence (Pyr-PC binding to PC-TP) ([2]; increasing inhibitor concentration)	Krel (Compound 4/PyrPC), relative affinity constant ([2]; inhibitor 5-75 μM, PyrPC 36 μM, PC-TP 300 nM, averaged from multiple experiments)	Kd [3] [µM]
Cc1cc(C)nc(NS(=O)(=O)c2ccc(NC(=O)NC(=O)c3ccc(Cl)cc3Cl)cc2)n1 [Compound 4, 2,4-dichloro-N-(4-(N-(4,6-dimethylpynmidin-2-yl)sulfamoyl)phenylcarbamoyl) benzamide]	4.1	12	63	activated insulin signaling	0.22	diminishing fluorescence of pyrene monomer	1.1+/−0.36	
Cc1cc(C)nc(NS(=O)(=O)c2cccc(NC(=O)NC(=O)c3ccc(Cl)cc3Cl)c2)n1 [Compound 8, 2,4-dichloro-N-(3-(N-(4,6-dimethylpyrimidin-2-yl)sulfamoyl)phenylcarbamoyl) benzamide]	6.5	14						5
